≈ marks a conversion by molar mass, not a printed value. Read-outs that look alike come from different tables or passages of the source.
Experiments:
[1] = system: Mycobacterium bovis (rBCG-lux); assay: microbe, parasite or virus in culture; type: cell-based, Mycobacterium bovis bacille Calmette Guerin; details: Mycobacterium tuberculosis variant bovis, 72 h; read-out: % of control, measured in RLUs
Helicobacter pylori = assay: In vitro inhibition of Helicobacter pylori (broth microdilution MIC); details: for MICs of control drugs relative to expected values: H. pylori ATCC 43; for MIC: Helicobacter pylori
[2] = system: M. tuberculosis H37 Rv in human THP-1 macrophages; assay: In vitro activity against M. tuberculosis in human macrophages (luciferase bioluminescence); type: cell-based, Mycobacterium tuberculosis, in human THP-1 cells
[3] = system: Clostridium difficile ATCC 17857; assay: In vitro inhibition of Clostridium difficile (Oxyrase broth microdilution MIC); type: cell-based; details: Clostridioides difficile, ATCC17857; Clostridium difficile ATCC 17857, Oxyrase broth; read-out: MIC, column D, 3(S) compounds
[4] = system: Mycobacterium bovis BCG (recombinant strain); assay: microbe, parasite or virus in culture; type: cell-based; details: Mycobacterium tuberculosis variant bovis BCG, BCG, 144 h; 6 days 37° C.; read-out: MIC, column A, 3(S) compounds
[5] = 72 h, read-out: MIC against Helicobacter pylori, strain 17 (Table 5A)
[6] = 72 h, read-out: MIC against Helicobacter pylori, strain 19 (Table 5A)
[7] = 72 h, read-out: MIC against Helicobacter pylori, strain 20 (Table 5A)
[8] = 72 h, read-out: MIC against Helicobacter pylori, strain 40 (Table 5A)
[9] = 72 h, read-out: MIC against Helicobacter pylori, strain 43 (Table 5A)
[10] = 72 h, read-out: MIC against Helicobacter pylori, strain 76 (Table 5A)
[11] = ATCC43504, 72 h, read-out: MIC against Helicobacter pylori, strain ATCC 43504 (Table 5A)

NCC[C@H](O)C(=O)N[C@@H]1C[C@H](N)[C@@H](O[C@H]2O[C@H](CN)[C@@H](O)[C@H](O)[C@H]2O)[C@H](O)[C@H]1O[C@H]1O[C@H](CO)[C@@H](O)[C@H](N)[C@H]1O [Amikacin]
activity at 0.15 µg/mL [1]: 52.9% | activity at 0.31 µg/mL [1]: 31.7% | activity at 0.62 µg/mL [1]: 18.9% | activity at 1.25 µg/mL [1]: 18.1% | activity at 2.5 µg/mL [1]: 10.7% | activity at 5 µg/mL [1]: 5.2%

CC1(C)S[C@@H]2[C@H](NC(=O)[C@H](N)c3ccc(O)cc3)C(=O)N2[C@H]1C(=O)O [Amoxicillin, reference compound]
MICs of control drugs relative to expected values (Helicobacter pylori): within the expected values | MIC (Helicobacter pylori; [5]): 0.016 µg/mL (≈ 0.0438 µM) | MIC (Helicobacter pylori; [6]): 0.016 µg/mL (≈ 0.0438 µM) | MIC (Helicobacter pylori; [7]): 0.032 µg/mL (≈ 0.0876 µM) | MIC (Helicobacter pylori; [8]): 0.032 µg/mL (≈ 0.0876 µM) | MIC (Helicobacter pylori; [9]): 0.016 µg/mL (≈ 0.0438 µM) | MIC (Helicobacter pylori; [10]): 0.032 µg/mL (≈ 0.0876 µM) | MIC (Helicobacter pylori; [11]): 0.06 µg/mL (≈ 0.164 µM)

CC[C@@H](CO)NCCN[C@@H](CC)CO [Ethambutol]
activity at 0.15 µg/mL [1]: 179% | activity at 0.31 µg/mL [1]: 152% | activity at 0.62 µg/mL [1]: 98.8% | activity at 1.25 µg/mL [1]: 148% | activity at 2.5 µg/mL [1]: 54.8% | activity at 5 µg/mL [1]: 53.1%

NNC(=O)c1ccncc1 [Isoniazid, reference compound]
activity at 0.15 µg/mL [1]: 158% | activity at 0.31 µg/mL [1]: 122% | activity at 0.62 µg/mL [1]: 110% | activity at 1.25 µg/mL [1]: 51.1% | activity at 2.5 µg/mL [1]: 34.1% | activity at 5 µg/mL [1]: 11.4% | RLU values ([2]; 0.03 μg/mL, day 1): 20360 RLU | RLU values ([2]; 0.03 μg/mL, day 2): 61355 RLU | RLU values ([2]; 0.03 μg/mL, day 3): 89528 RLU | RLU values ([2]; 0.03 μg/mL, day 4): 68253 RLU | RLU values ([2]; 0.03 μg/mL, day 7): 89032 RLU | RLU values ([2]; 0.06 μg/mL, day 1): 32192 RLU | RLU values ([2]; 0.06 μg/mL, day 2): 36680 RLU | RLU values ([2]; 0.06 μg/mL, day 3): 40344 RLU | RLU values ([2]; 0.06 μg/mL, day 4): 27408 RLU | RLU values ([2]; 0.06 μg/mL, day 7): 15855 RLU | RLU values ([2]; 0.13 μg/mL, day 1): 31113 RLU | RLU values ([2]; 0.13 μg/mL, day 2): 33898 RLU | RLU values ([2]; 0.13 μg/mL, day 3): 36634 RLU | RLU values ([2]; 0.13 μg/mL, day 4): 25282 RLU | RLU values ([2]; 0.13 μg/mL, day 7): 13373 RLU

Cc1ncc([N+](=O)[O-])n1CCO [Metronidazole, reference compound]
MICs of control drugs relative to expected values (Helicobacter pylori): within the expected values | MIC (Helicobacter pylori; [5]): 32 µg/mL (≈ 187 µM) | MIC (Helicobacter pylori; [6]): 0.25 µg/mL (≈ 1.46 µM) | MIC (Helicobacter pylori; [7]): 1 µg/mL (≈ 5.84 µM) | MIC (Helicobacter pylori; [8]): 0.25 µg/mL (≈ 1.46 µM) | MIC (Helicobacter pylori; [9]): 0.032 µg/mL (≈ 0.187 µM) | MIC (Helicobacter pylori; [10]): 32 µg/mL (≈ 187 µM) | MIC (Helicobacter pylori; 72 h, read-out: MIC against Helicobacter pylori, strain B40, Met-S, Clar-S (Table 5B)): < 0.5 µg/mL | MIC (Helicobacter pylori; 72 h, read-out: MIC against Helicobacter pylori, strain B76, Met-R, Clar-S (Table 5B)): 8 µg/mL (≈ 46.7 µM) | MIC (Helicobacter pylori; 72 h, read-out: MIC against Helicobacter pylori, strain C1649, Met-R, Clar-R (Table 5B)): 16 µg/mL (≈ 93.5 µM) | MIC (Helicobacter pylori; 72 h, read-out: MIC against Helicobacter pylori, strain C11403, Met-S, Clar-R (Table 5B)): < 0.5 µg/mL | MIC (Helicobacter pylori; 72 h, read-out: MIC against Helicobacter pylori, strain C19765 (Table 5B)): 8 µg/mL (≈ 46.7 µM) | MIC (Helicobacter pylori; 72 h, read-out: MIC against Helicobacter pylori, strain RD26, Met-S, Clar-S (Table 5B)): 1 µg/mL (≈ 5.84 µM) | MIC (Helicobacter pylori; 72 h, read-out: MIC against Helicobacter pylori, strain rd26, Met-S, Clar-S (Table 5B)): 1 µg/mL (≈ 5.84 µM) | MIC (Helicobacter pylori; [11]): 128 µg/mL (≈ 748 µM) | MIC (Helicobacter pylori; ATCC43504, 72 h, read-out: MIC against Helicobacter pylori, strain ATCC 43504, Met-R, Clar-S (Table 5B)): 128 to 256 µg/mL (≈ 748 to 1500 µM) | MIC (Helicobacter pylori; ATCC43526, 72 h, read-out: MIC against Helicobacter pylori, strain ATCC 43526, Met-R, Clar-S (Table 5B)): 16 µg/mL (≈ 93.5 µM) | MIC (Helicobacter pylori; ATCC43579, 72 h, read-out: MIC against Helicobacter pylori, strain ATCC 43579, Met-S, Clar-S (Table 5B)): 2 µg/mL (≈ 11.7 µM) | MIC (Helicobacter pylori; ATCC43629, 72 h, read-out: MIC against Helicobacter pylori, strain ATCC 43629, Met-S, Clar-S (Table 5B)): < 0.5 µg/mL

CCCCCCCCO[C@@H]1COc2nc([N+](=O)[O-])cn2C1 [PA-602, 3S n-Octyloxy-6-nitro-2H-3,4-dihydro-[2-1b]imidazopyran]
MIC [3]: 3.12 µg/mL (≈ 10.5 µM) | MIC [4]: < 5 µg/mL

O=[N+]([O-])c1cn2c(n1)OC[C@@H](OCc1ccc(C(F)(F)F)cc1C(F)(F)F)C2 [PA-646]
MIC [3]: 3.12 µg/mL (≈ 7.59 µM) | MIC [4]: < 5 µg/mL

O=[N+]([O-])c1cn2c(n1)OC[C@@H](OCc1ccccc1)C2 [PA-651]
MIC [3]: 3.12 µg/mL (≈ 11.3 µM) | MIC [4]: > 5 µg/mL

O=[N+]([O-])c1cn2c(n1)OC[C@@H](OCc1c(F)c(F)c(F)c(F)c1F)C2 [PA-652]
MIC [3]: 3.12 µg/mL (≈ 8.54 µM) | MIC [4]: > 5 µg/mL

O=[N+]([O-])c1cn2c(n1)OC[C@@H](OCc1ccc(F)cc1F)C2 [PA-654]
MIC [3]: 3.12 µg/mL (≈ 10 µM) | MIC [4]: > 5 µg/mL
